Measurements as given in PubChem BioAssay AID634 (Vanderbilt High Throughput Screening Facility, 2007).
Activity calls are given as the source filed them. No rule for the calls is given here.

Target: Voltage-gated potassium channel subunit beta-2 (Rattus norvegicus) (UniProt P62483)
Assay: retested enhancers of rat Kvbeta2 activity – biochemical, confirmation (AID 634)
Details: Rat Kvbeta2 enzymatic assay, slope read-out; active compounds read low

Voltage-gated potassium channel subunit beta-2 (Rattus norvegicus), sequence (P62483 whole entry, looked up): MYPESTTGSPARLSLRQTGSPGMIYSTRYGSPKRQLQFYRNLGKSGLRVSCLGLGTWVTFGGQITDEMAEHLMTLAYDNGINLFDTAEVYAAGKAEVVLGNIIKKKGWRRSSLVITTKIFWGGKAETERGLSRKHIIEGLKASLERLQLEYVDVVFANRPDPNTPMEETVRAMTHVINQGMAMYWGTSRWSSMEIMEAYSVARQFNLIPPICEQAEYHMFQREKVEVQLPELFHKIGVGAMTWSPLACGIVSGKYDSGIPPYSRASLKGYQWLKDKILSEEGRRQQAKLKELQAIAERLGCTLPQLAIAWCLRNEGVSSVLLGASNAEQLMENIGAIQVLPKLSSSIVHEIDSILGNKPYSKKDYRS

Row | Structure (SMILES) | slope
1 | CN1C(=S)SC(C)(NO)C1(C)C (configuration not stated) | -0.536
2 | Cn1c(SCC(=O)Nc2ccc3c(c2)oc2ccccc23)nnc1-c1ccccc1 | 0.119 (inactive)
3 | CCOC(=O)CNC(=O)Nc1ccccc1C(=O)OC | 0.092 (inactive)
4 | COc1ccccc1C1/C(=C(/O)c2ccc(OC(C)C)cc2)C(=O)C(=O)N1c1cc(C)on1 (configuration not stated) | 0.0306 (inactive)
5 | CCCCOc1ccc(-c2nnn(C(C)(C)C(=O)OC)n2)cc1 | 0.0535 (inactive)
6 | CCn1cc(C(=O)Nc2cc3c(cc2NC(C)=O)OCCO3)c(=O)c2ccc(C)nc21 | 0.112 (inactive)
7 | CCOc1ccccc1Nc1nc2ccccc2[nH]1 | 0.0352 (inactive)
8 | Cc1ccc(N2C(=O)C3ON(c4ccccc4)C(c4ccncc4)C3C2=O)cc1 (configuration not stated) | 0.0514 (inactive)
9 | CC(O)CNc1nc2c(c(=O)n(C)c(=O)n2C)n1CCc1ccccc1 (configuration not stated) | 0.0661 (inactive)
10 | CCCCCC#CCC#CCC#CCC#CCCCC(=O)O | -0.0283 (inactive)
11 | NS(=O)(=O)c1cc2c(cc1Cl)NC=NS2(=O)=O | 0.0676 (inactive)
12 | C=CCn1c(SCC(=O)NCC2CCCO2)nc2scc(-c3ccco3)c2c1=O (configuration not stated) | 0.0642 (inactive)
13 | CC(c1ccco1)N(C(=O)c1ccc(S(=O)(=O)N2CCCCC2)cc1)c1ccccn1 (configuration not stated) | 0.0766 (inactive)
14 | COc1cccc(Oc2ccc(N)cc2)c1 | 0.062 (inactive)
15 | O=C(NCCC1=CCCCC1)N[C@@H](Cc1ccccc1)C(=O)O | 0.0842 (inactive)
16 | CCN(CC)CCCn1c(=S)[nH]c2cc(Cl)ccc2c1=O | 0.133 (inactive)
17 | CCOC(=O)C1=C(N)OC(C)=C(C(=O)OCCOC)C12C(=O)Nc1ccccc12 (configuration not stated) | 0.0877 (inactive)
18 | Cc1ccc2c(c1)[C@@H]1CN(C)CC[C@@H]1N2C(=O)Nc1cccc(C(F)(F)F)c1 | -0.0275 (inactive)
19 | O=C(NCc1cccs1)C(Cc1ccccc1)NS(=O)(=O)c1cccs1 (configuration not stated) | 0.0568 (inactive)
20 | CC(=O)Oc1ccc2c(C)cc(=O)[nH]c2c1 | 0.0957 (inactive)
21 | O=c1c2ccccc2[se]n1-c1ccccc1 | -0.798
22 | O=C(C1=C(O)C(=O)N(CCCN2CCOCC2)C1c1ccccn1)c1cc2ccccc2o1 (configuration not stated) | 0.134 (inactive)
